Laboratory results reported in patent US12480137B2, “Plants having increased tolerance to herbicides” (BASF SE, priority 2014, dated 2025).

Legend:
Assay type in all cases: in vivo, Arabidopsis thaliana
[1] = tested on: transgenic Arabidopsis plants, construct AtCESA1_G1013R; assay: Growth inhibition of transgenic Arabidopsis in 48-well plates, tolerance factor from IC50; conditions: SEQ ID NO 1, substitution G1013R, growth inhibition seven to ten days after seeding
Text: (§1) For transformation of Arabidopsis thaliana, wildtype or mutated cellulose synthase sequences based on one of the following sequences SEQ ID NO: 72, 73, 74, 75, 76, or 77, are cloned with standard cloning techniques as described in Sambrook et al. (Molecular cloning (2001) Cold Spring Harbor Laboratory Press) in a binary vector containing resistance marker gene cassette (AHAS) and mutated cellulose synthase sequence (marked as GOI) in between ubiquitin promoter (PcUbi) and nopaline synthase terminator (NOS) sequence. Binary plasmids are introduced to Agrobacterium tumefaciens for plant transformation. Arabidopsis thaliana are transformed with wildtype or mutated cellulose synthase sequences by floral dip method as decribed by McElver and Singh (WO 2008/124495). Transgenic Arabidopsis plants are subjected to TaqMan analysis for analysis of the number of integration loci.
(§2) Transgenic Arabidopsis thaliana plants are assayed for improved tolerance to azine herbicides like e. g. 6-cyclopentyl-N4-(2,3,4,5,6-pentafluorophenyl)-1,3,5-triazine-2,4-diamine in 48-well plates. Therefore, T2 seeds are surface sterilized by stirring for 5 min in ethanol+water (70+30 by volume), rinsing one time with ethanol+water (70+30 by volume) and two times with sterile, deionized water. The seeds are resuspended in 0.1% agar dissolved in water (w/v) Four to five seeds per well are plated on solid nutrient medium consisting of half-strength murashige skoog nutrient solution, pH 5.8 (Murashige and Skoog (1962) Physiologia Plantarum 15: 473-497). Compounds are dissolved in dimethylsulfoxid (DMSO) and added to the medium prior solidification (final DMSO concentration 0.1%). Multi well plates are incubated in a growth chamber at 22° C., 75% relative humidity and 110 μmol Phot*m^−2*s^−1 with 14:10 h light:dark photoperiod. Growth inhibition is evaluated seven to ten days after seeding in comparison to wild type plants. Tolerance factors are calculated based on IC50 values of growth inhibition of transformed versus non-transformed Arabidopsis plants.

[2] = tested on: transgenic Arabidopsis plants, construct AtCESA3_S1037F; assay: as above; conditions: SEQ ID NO 3, substitution S1037F, growth inhibition seven to ten days after seeding
Text: as §1, §2

[3] = tested on: transgenic Arabidopsis plants, construct AtCESA3_S1040L; assay: as above; conditions: SEQ ID NO 3, substitution S1040L, growth inhibition seven to ten days after seeding
Text: as §1, §2

[4] = tested on: transgenic Arabidopsis plants, construct AtCESA3_wt; assay: as above; conditions: SEQ ID NO 3, growth inhibition seven to ten days after seeding
Text: as §1, §2

[5] = tested on: transgenic Arabidopsis plants, construct AtCESA1 wt; assay: as above; conditions: SEQ ID NO 1, growth inhibition seven to ten days after seeding
Text: as §1, §2

[6] = tested on: Cesa1_G1013R, fpx2-1 mutant line; assay: Greenhouse phytotox, pre-emergent treatment
In short: (§3)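 Tolerance to cellulose biosynthesis inhibitors is assessed on M2 or M3 generation Arabidopsis grown in a greenhouse. Example inhibitors are fluorinated N4-aryl triazine-2,4-diamines, including N4-(4-bromo-2,3,5,6-tetrafluoro-phenyl)-6-(1-fluoro-1-methyl-ethyl)-1,3,5-triazine-2,4-diamine.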

[7] = tested on: Cesa1_G1009D, fpx2-3 mutant line; assay: Greenhouse phytotox, pre-emergent treatment
In short: as §3

A. thaliana WT L. erecta = assay: Greenhouse phytotox, pre-emergent treatment
In short: (§4)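 First, M2 or M3 Arabidopsis plants are grown under greenhouse conditions. Next, they are treated with a cellulose biosynthesis-inhibiting triazine-2,4-diamine herbicide, e.g. N4-(4-chloro-3,5,6-trifluoro-2-pyridyl)-6-(1-fluoro-1-methyl-ethyl)-1,3,5-triazine-2,4-diamine. Finally, improved herbicide tolerance is evaluated.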

[8] = tested on: Cesa3_S1040L, fpx1-1 mutant line; assay: Greenhouse phytotox, pre-emergent treatment
In short: as §4

[9] = tested on: Cesa3_S983F, fpx1-3 mutant line; assay: Greenhouse phytotox, pre-emergent treatment
In short: as §4

[10] = tested on: Cesa3_S1037F, fpx1-2 mutant line; assay: Greenhouse phytotox, pre-emergent treatment
In short: as §4

[11] = tested on: Cesa1_P1010L, fpx2-2 mutant line; assay: Greenhouse phytotox, pre-emergent treatment
In short: as §3

Nc1nc(Nc2c(F)c(F)c(F)c(F)c2F)nc(C2CCCC2)n1 [6-cyclopentyl-N4-(2,3,4,5,6-pentafluorophenyl)-1,3,5-triazine-2,4-diamine]
Relative tolerance rate (non-transgenic = 1.0) [1]: 3
Relative tolerance rate (non-transgenic = 1.0) [2]: 17
Relative tolerance rate (non-transgenic = 1.0) [3]: 1
Relative tolerance rate (non-transgenic = 1.0) [4]: 1
Relative tolerance rate (non-transgenic = 1.0) [5]: 1
Phytotox value on a scale from 0-100 (100 is 100% damage) ([6]; 0.25 g ai/ha): 5
Phytotox value on a scale from 0-100 (100 is 100% damage) ([6]; 0.98 g ai/ha): 15
Phytotox value on a scale from 0-100 (100 is 100% damage) ([6]; 3.91 g ai/ha): 25
Phytotox value on a scale from 0-100 (100 is 100% damage) ([6]; 15.63 g ai/ha): 15
Phytotox value on a scale from 0-100 (100 is 100% damage) ([7]; 0.25 g ai/ha): 5
Phytotox value on a scale from 0-100 (100 is 100% damage) ([7]; 0.98 g ai/ha): 25
Phytotox value on a scale from 0-100 (100 is 100% damage) ([7]; 3.91 g ai/ha): 58
Phytotox value on a scale from 0-100 (100 is 100% damage) ([7]; 15.63 g ai/ha): 88
Phytotox value on a scale from 0-100 (100 is 100% damage) (A. thaliana WT L. erecta; 0.25 g ai/ha): 38
Phytotox value on a scale from 0-100 (100 is 100% damage) (A. thaliana WT L. erecta; 0.98 g ai/ha): 80
Phytotox value on a scale from 0-100 (100 is 100% damage) (A. thaliana WT L. erecta; 3.91 g ai/ha): 99
Phytotox value on a scale from 0-100 (100 is 100% damage) (A. thaliana WT L. erecta; 15.63 g ai/ha): 100
Phytotox value on a scale from 0-100 (100 is 100% damage) ([8]; 0.25 g ai/ha): 5
Phytotox value on a scale from 0-100 (100 is 100% damage) ([8]; 0.98 g ai/ha): 20
Phytotox value on a scale from 0-100 (100 is 100% damage) ([8]; 3.91 g ai/ha): 25
Phytotox value on a scale from 0-100 (100 is 100% damage) ([8]; 15.63 g ai/ha): 40
Phytotox value on a scale from 0-100 (100 is 100% damage) ([9]; 0.25 g ai/ha): 0
Phytotox value on a scale from 0-100 (100 is 100% damage) ([9]; 0.98 g ai/ha): 5
Phytotox value on a scale from 0-100 (100 is 100% damage) ([9]; 3.91 g ai/ha): 20
Phytotox value on a scale from 0-100 (100 is 100% damage) ([9]; 15.63 g ai/ha): 40
Phytotox value on a scale from 0-100 (100 is 100% damage) ([10]; 0.25 g ai/ha): 0
Phytotox value on a scale from 0-100 (100 is 100% damage) ([10]; 0.98 g ai/ha): 23
Phytotox value on a scale from 0-100 (100 is 100% damage) ([10]; 3.91 g ai/ha): 15
Phytotox value on a scale from 0-100 (100 is 100% damage) ([10]; 15.63 g ai/ha): 5
Phytotox value on a scale from 0-100 (100 is 100% damage) ([11]; 0.25 g ai/ha): 0
Phytotox value on a scale from 0-100 (100 is 100% damage) ([11]; 0.98 g ai/ha): 33
Phytotox value on a scale from 0-100 (100 is 100% damage) ([11]; 3.91 g ai/ha): 63
Phytotox value on a scale from 0-100 (100 is 100% damage) ([11]; 15.63 g ai/ha): 98
